Reference: patent publication US20150087673A1, “METHODS FOR USING AND BIOMARKERS FOR AMPK-ACTIVATING COMPOUNDS” (RIGEL PHARMACEUTICALS, INC., priority 2013, published 2015)
Marks after values point to notes of the source that are not given here.

Columns and labels:
[1] = system: db/db mice; assay: Metabolomics study: metabolite profiling of liver, muscle, adipose tissue and plasma of treated db/db mice; type: in vivo, mouse
Description: Maledb/db mice (8 weeks) were orally gavaged once daily with either vehicle or 10 mg/kg compound 309. Liver, muscle, adipose tissue, and plasma from treated mice (n=6/treatment group) were collected 30 minutes after dosing both on day 3 of treatment. Frozen tissue and plasma samples were sent to Metabolon for unbiased metabolite analysis [(Durham, N.C.) See, Evans A, DeHaven C, Barrett T, Mitchell M, Milgram E (2009)—Integrated, nontargeted ultrahigh performance liquid chromatography/electrospray ionization tandem mass spectrometry platform for the identification and relative quantification of the small-molecule complement of biological systems. Anal Chem 81: 6656-6667. Lawton K, Berger A, Mitchell M, Milgram K, Evans A, et al. (2008)—Analysis of the adult human plasma metabolome. Pharmacogenomics 9: 383-397. Reitman Z J, Jin G, Karoly E D, Spasojevic I, Yang J, et al. (2011) Profiling the effects of isocitrate dehydrogenase 1 and 2 mutations on the cellular metabolome. PNAS 108: […].] Biochemical data were analyzed using Welch's two-sample t-tests.
Metabolite profiling of tissues from db/db mice orally dosed with either vehicle or 10 mg/kg compound 309 was used to characterize in detail the effects of the present AMPK activators on nutrient pathways in a commonly used mouse model of type 2 diabetes. […] Since AMPK activation results in both acute and chronic changes to metabolic pathways, samples from non-fasted mice treated for three days with compound 309 were analyzed. Samples were collected thirty minutes after compound dosing when compound 309 plasma levels as well as tissue AMPK activation were maximal.

[2] = system: AMPK; assay: AMPK activation in liver and muscle lysates after a single oral administration; type: in vivo, mouse; settings: normal C57BL/6J mice, single oral administration of 10 mg/kg
[3] = system: gluconeogenesis; assay: Gluconeogenesis in vitro; type: cell-based
[4] = Adipose, 10 mg/kg oral once daily, day 3, 30 min after dosing
[5] = Liver, 10 mg/kg oral once daily, day 3, 30 min after dosing
[6] = Muscle, 10 mg/kg oral once daily, day 3, 30 min after dosing
[7] = Plasma, 10 mg/kg oral once daily, day 3, 30 min after dosing

COc1ccc(C(=O)C2CCN(C(=O)c3ccc(C(=O)NC4CCN(Cc5ccc(C#N)cc5)CC4)cn3)CC2)cc1 [Compound 309, N-(1-(4-cyanobenzyl)piperidin-4-yl)-6-(4-(4-methoxybenzoyl)piperidine-1-carbonyl)nicotinamide]
relative levels of the other amino acids ([1]; 10 mg/kg): not similarly affected | 2-methylbutyrlcarnitine (C5) Ratio (Compound 309/Vehicle) [1, 4]: 0.57^†† | 3-hydroxybutyrate (BHBA) Ratio (Compound 309/Vehicle) [1, 4]: 1.68** | 3-hydroxyisobutyrate Ratio (Compound 309/Vehicle) [1, 4]: 1.13 | 3-methyl-2-oxobutyrate Ratio (Compound 309/Vehicle) [1, 4]: 1 | 3-methyl-2-oxovalerate Ratio (Compound 309/Vehicle) [1, 4]: 1.31** | 4-methyl-2-oxopentanoate Ratio (Compound 309/Vehicle) [1, 4]: 1.23 | alanine Ratio (Compound 309/Vehicle) [1, 4]: 1 | arginine Ratio (Compound 309/Vehicle) [1, 4]: 0.86^†† | asparagine Ratio (Compound 309/Vehicle) [1, 4]: 0.84 | aspartate Ratio (Compound 309/Vehicle) [1, 4]: 0.72^†† | butyrylcarnitine Ratio (Compound 309/Vehicle) [1, 4]: 0.82 | cysteine Ratio (Compound 309/Vehicle) [1, 4]: 0.62^† | glutamate Ratio (Compound 309/Vehicle) [1, 4]: 0.89 | glutamine Ratio (Compound 309/Vehicle) [1, 4]: 0.95 | glycine Ratio (Compound 309/Vehicle) [1, 4]: 0.81 | hydroxybutyrylcarnitine Ratio (Compound 309/Vehicle) [1, 4]: 1.7** | hydroxylisovaleroyl carnitine Ratio (Compound 309/Vehicle) [1, 4]: 0.86 | isobutyrylcarnitine Ratio (Compound 309/Vehicle) [1, 4]: 0.57^†† | isoleucine Ratio (Compound 309/Vehicle) [1, 4]: 0.73 | isovalerylcarnitine Ratio (Compound 309/Vehicle) [1, 4]: 0.58^†† | leucine Ratio (Compound 309/Vehicle) [1, 4]: 0.78 | lysine Ratio (Compound 309/Vehicle) [1, 4]: 0.74 | methionine Ratio (Compound 309/Vehicle) [1, 4]: 0.87 | phenylalanine Ratio (Compound 309/Vehicle) [1, 4]: 0.82 | proline Ratio (Compound 309/Vehicle) [1, 4]: 0.86 | propionylcarnitine Ratio (Compound 309/Vehicle) [1, 4]: 0.77 | serine Ratio (Compound 309/Vehicle) [1, 4]: 0.85 | threonine Ratio (Compound 309/Vehicle) [1, 4]: 0.77^† | tryptophan Ratio (Compound 309/Vehicle) [1, 4]: 0.9 | tyrosine Ratio (Compound 309/Vehicle) [1, 4]: 0.85 | valine Ratio (Compound 309/Vehicle) [1, 4]: 0.81 | 2-methylbutyrlcarnitine (C5) Ratio (Compound 309/Vehicle) [1, 5]: 0.76 | 3-hydroxybutyrate (BHBA) Ratio (Compound 309/Vehicle) [1, 5]: 1.15 | 3-methylglutaryl carnitine (C6) Ratio (Compound 309/Vehicle) [1, 5]: 0.57^†† | N-acetylleucine Ratio (Compound 309/Vehicle) [1, 5]: 0.94 | alanine Ratio (Compound 309/Vehicle) [1, 5]: 1.4** | alpha-hydroxyisovalerate Ratio (Compound 309/Vehicle) [1, 5]: 0.86 | arginine Ratio (Compound 309/Vehicle) [1, 5]: 1.67 | aspartate Ratio (Compound 309/Vehicle) [1, 5]: 1.59** | butyrylglycine Ratio (Compound 309/Vehicle) [1, 5]: 0.41^†† | cysteine Ratio (Compound 309/Vehicle) [1, 5]: 0.97 | glutamate Ratio (Compound 309/Vehicle) [1, 5]: 1.61** | glutamine Ratio (Compound 309/Vehicle) [1, 5]: 1.04 | glycine Ratio (Compound 309/Vehicle) [1, 5]: 0.96 | histidine Ratio (Compound 309/Vehicle) [1, 5]: 1.16* | hydroxybutyrylcarnitine Ratio (Compound 309/Vehicle) [1, 5]: 1.45** | hydroxylisovaleroyl carnitine Ratio (Compound 309/Vehicle) [1, 5]: 1 | isoleucine Ratio (Compound 309/Vehicle) [1, 5]: 0.86^†† | isovalerylcarnitine Ratio (Compound 309/Vehicle) [1, 5]: 0.54^†† | leucine Ratio (Compound 309/Vehicle) [1, 5]: 0.94 | lysine Ratio (Compound 309/Vehicle) [1, 5]: 1.11* | methionine Ratio (Compound 309/Vehicle) [1, 5]: 1.03 | phenylalanine Ratio (Compound 309/Vehicle) [1, 5]: 0.96 | proline Ratio (Compound 309/Vehicle) [1, 5]: 0.94 | propionylcarnitine Ratio (Compound 309/Vehicle) [1, 5]: 0.73 | serine Ratio (Compound 309/Vehicle) [1, 5]: 1.19 | threonine Ratio (Compound 309/Vehicle) [1, 5]: 0.94 | tryptophan Ratio (Compound 309/Vehicle) [1, 5]: 0.99 | tyrosine Ratio (Compound 309/Vehicle) [1, 5]: 1.08 | valine Ratio (Compound 309/Vehicle) [1, 5]: 0.87^†† | 2-methylbutyrlcarnitine (C5) Ratio (Compound 309/Vehicle) [1, 6]: 0.63^†† | 3-hydroxybutyrate (BHBA) Ratio (Compound 309/Vehicle) [1, 6]: 2.2** | 3-hydroxyisobutyrate Ratio (Compound 309/Vehicle) [1, 6]: 1.33* | 3-methyl-2-oxovalerate Ratio (Compound 309/Vehicle) [1, 6]: 0.78 | 4-methyl-2-oxopentanoate Ratio (Compound 309/Vehicle) [1, 6]: 0.96 | alanine Ratio (Compound 309/Vehicle) [1, 6]: 0.96 | alpha-hydroxyisovalerate Ratio (Compound 309/Vehicle) [1, 6]: 0.85 | arginine Ratio (Compound 309/Vehicle) [1, 6]: 0.71 | aspartate Ratio (Compound 309/Vehicle) [1, 6]: 0.82 | butyrylcarnitine Ratio (Compound 309/Vehicle) [1, 6]: 0.62 | butyrylglycine Ratio (Compound 309/Vehicle) [1, 6]: 1.07 | glutamate Ratio (Compound 309/Vehicle) [1, 6]: 1.15 | glutamine Ratio (Compound 309/Vehicle) [1, 6]: 1.04 | glycine Ratio (Compound 309/Vehicle) [1, 6]: 0.96 | histidine Ratio (Compound 309/Vehicle) [1, 6]: 1 | hydroxybutyrylcarnitine Ratio (Compound 309/Vehicle) [1, 6]: 1.34* | hydroxylisovaleroyl carnitine Ratio (Compound 309/Vehicle) [1, 6]: 0.86^† | isobutyrylcarnitine Ratio (Compound 309/Vehicle) [1, 6]: 0.64^†† | isoleucine Ratio (Compound 309/Vehicle) [1, 6]: 0.81^†† | isovalerylcarnitine Ratio (Compound 309/Vehicle) [1, 6]: 0.58^†† | leucine Ratio (Compound 309/Vehicle) [1, 6]: 0.83^† | lysine Ratio (Compound 309/Vehicle) [1, 6]: 0.96 | methionine Ratio (Compound 309/Vehicle) [1, 6]: 0.78^† | phenylalanine Ratio (Compound 309/Vehicle) [1, 6]: 0.91 | proline Ratio (Compound 309/Vehicle) [1, 6]: 0.92 | propionylcarnitine Ratio (Compound 309/Vehicle) [1, 6]: 0.87^† | serine Ratio (Compound 309/Vehicle) [1, 6]: 0.89 | threonine Ratio (Compound 309/Vehicle) [1, 6]: 0.89 | tiglyl carnitine Ratio (Compound 309/Vehicle) [1, 6]: 0.98 | tryptophan Ratio (Compound 309/Vehicle) [1, 6]: 0.95 | tyrosine Ratio (Compound 309/Vehicle) [1, 6]: 0.96 | valine Ratio (Compound 309/Vehicle) [1, 6]: 0.77^†† | 2-hydroxy-3-methylvalerate Ratio (Compound 309/Vehicle) [1, 7]: 0.91 | 2-methylbutyrlcarnitine (C5) Ratio (Compound 309/Vehicle) [1, 7]: 0.56^†† | 3-hydroxybutyrate (BHBA) Ratio (Compound 309/Vehicle) [1, 7]: 1.93** | 3-hydroxyisobutyrate Ratio (Compound 309/Vehicle) [1, 7]: 1.69** | 3-methyl-2-oxobutyrate Ratio (Compound 309/Vehicle) [1, 7]: 1.17 | 3-methyl-2-oxovalerate Ratio (Compound 309/Vehicle) [1, 7]: 1.06 | 3-methylglutaryl carnitine (C6) Ratio (Compound 309/Vehicle) [1, 7]: 0.55^†† | 4-methyl-2-oxopentanoate Ratio (Compound 309/Vehicle) [1, 7]: 1.05 | N-acetylisoleucisne Ratio (Compound 309/Vehicle) [1, 7]: 1.11 | N-acetylleucine Ratio (Compound 309/Vehicle) [1, 7]: 0.96 | alanine Ratio (Compound 309/Vehicle) [1, 7]: 1.22 | alpha-hydroxyisocaproate Ratio (Compound 309/Vehicle) [1, 7]: 0.91 | alpha-hydroxyisovalerate Ratio (Compound 309/Vehicle) [1, 7]: 0.91 | arginine Ratio (Compound 309/Vehicle) [1, 7]: 0.95 | asparagine Ratio (Compound 309/Vehicle) [1, 7]: 0.89 | butyrylcarnitine Ratio (Compound 309/Vehicle) [1, 7]: 0.65^† | butyrylglycine Ratio (Compound 309/Vehicle) [1, 7]: 0.41^†† | cysteine Ratio (Compound 309/Vehicle) [1, 7]: 0.94 | glutamate Ratio (Compound 309/Vehicle) [1, 7]: 1.22* | glutamine Ratio (Compound 309/Vehicle) [1, 7]: 1.03 | glycine Ratio (Compound 309/Vehicle) [1, 7]: 1.03 | histidine Ratio (Compound 309/Vehicle) [1, 7]: 0.99 | hydroxybutyrylcarnitine Ratio (Compound 309/Vehicle) [1, 7]: 2.28** | isobutyrylcarnitine Ratio (Compound 309/Vehicle) [1, 7]: 0.41^†† | isoleucine Ratio (Compound 309/Vehicle) [1, 7]: 0.75^†† | isovalerylcarnitine Ratio (Compound 309/Vehicle) [1, 7]: 0.45^†† | isovalerylglycine Ratio (Compound 309/Vehicle) [1, 7]: 0.67^†† | leucine Ratio (Compound 309/Vehicle) [1, 7]: 0.75^† | lysine Ratio (Compound 309/Vehicle) [1, 7]: 0.91 | methionine Ratio (Compound 309/Vehicle) [1, 7]: 0.88 | phenylalanine Ratio (Compound 309/Vehicle) [1, 7]: 0.87 | proline Ratio (Compound 309/Vehicle) [1, 7]: 0.96 | propionylcarnitine Ratio (Compound 309/Vehicle) [1, 7]: 1.07 | serine Ratio (Compound 309/Vehicle) [1, 7]: 0.83^† | threonine Ratio (Compound 309/Vehicle) [1, 7]: 0.9 | tigloylglycine Ratio (Compound 309/Vehicle) [1, 7]: 0.96 | tryptophan Ratio (Compound 309/Vehicle) [1, 7]: 1.02 | tyrosine Ratio (Compound 309/Vehicle) [1, 7]: 1.11 | valine Ratio (Compound 309/Vehicle) [1, 7]: 0.91 | hydroxybutyrylcarnitine levels ([1]; all compartments sampled, 10 mg/kg): similarly increased | intermediates of the catabolic pathways of all three BCAA ([1]; all three major metabolic organs and plasma, 10 mg/kg): Marked reductions | effects on glucose metabolic pathways in global metabolite profiling ([1]; data not shown): no dramatic effects | relative levels of butyrylglycine and butyrylcarnitine ([1]; liver and plasma, 10 mg/kg): reduction | BHBA level vs vehicle ([1]; liver, 10 mg/kg oral once daily, day 3): no difference | 3-hydroxybutyrate (BHBA) level vs vehicle ([1]; muscle, fat and plasma, 10 mg/kg oral once daily, day 3): significant elevation | AMPK activation in liver and muscle lysates [2]: robust AMPK activation | gluconeogenesis [3]: reduction
